US10538498B2, “1,3,4-oxadiazole sulfonamide derivative compounds as histone deacetylase 6 inhibitor, and the pharmaceutical composition comprising the same” (Chong Kun Dang Pharmaceutical Corp., priority 2015, dated 2020)

Target: T1, human recombinant HDAC6 (Homo sapiens, UniProt Q9UBN7)
T1 construct: purchased Calbiochem 382180
T1 sequence (Q9UBN7 1-1215): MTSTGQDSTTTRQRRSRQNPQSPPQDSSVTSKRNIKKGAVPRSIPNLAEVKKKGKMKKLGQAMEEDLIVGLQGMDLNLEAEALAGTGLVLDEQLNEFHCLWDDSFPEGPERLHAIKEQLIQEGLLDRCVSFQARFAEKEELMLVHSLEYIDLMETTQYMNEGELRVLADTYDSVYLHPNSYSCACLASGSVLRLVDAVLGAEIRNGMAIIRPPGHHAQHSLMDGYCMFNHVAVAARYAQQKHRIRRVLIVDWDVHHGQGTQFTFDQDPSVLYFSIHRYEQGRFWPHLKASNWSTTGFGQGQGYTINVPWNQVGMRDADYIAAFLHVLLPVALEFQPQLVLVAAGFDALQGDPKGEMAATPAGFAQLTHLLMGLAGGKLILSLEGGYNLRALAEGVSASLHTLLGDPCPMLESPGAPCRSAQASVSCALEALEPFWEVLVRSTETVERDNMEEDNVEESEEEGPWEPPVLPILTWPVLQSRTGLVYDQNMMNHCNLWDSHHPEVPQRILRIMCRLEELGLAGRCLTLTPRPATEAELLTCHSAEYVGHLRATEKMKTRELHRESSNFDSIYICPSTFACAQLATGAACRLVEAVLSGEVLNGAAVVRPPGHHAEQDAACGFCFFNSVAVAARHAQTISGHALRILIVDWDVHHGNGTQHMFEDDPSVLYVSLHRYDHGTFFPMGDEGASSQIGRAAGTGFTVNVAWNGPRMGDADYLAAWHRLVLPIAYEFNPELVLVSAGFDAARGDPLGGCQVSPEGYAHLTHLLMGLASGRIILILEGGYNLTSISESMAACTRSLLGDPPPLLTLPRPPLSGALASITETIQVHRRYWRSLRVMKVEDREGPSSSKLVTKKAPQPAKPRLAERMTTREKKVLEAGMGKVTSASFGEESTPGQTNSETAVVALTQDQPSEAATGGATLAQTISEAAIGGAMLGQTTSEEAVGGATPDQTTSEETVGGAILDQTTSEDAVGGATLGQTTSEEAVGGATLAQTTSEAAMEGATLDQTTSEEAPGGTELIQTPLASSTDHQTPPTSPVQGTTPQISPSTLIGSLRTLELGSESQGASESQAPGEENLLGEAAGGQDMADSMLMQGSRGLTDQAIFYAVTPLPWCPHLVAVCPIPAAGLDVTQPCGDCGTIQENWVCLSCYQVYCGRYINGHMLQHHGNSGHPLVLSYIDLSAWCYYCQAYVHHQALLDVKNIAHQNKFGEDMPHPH
Experiment: HDAC6 enzyme activity inhibition assay (HDAC Fluorimetric Drug Discovery Kit)
Format: biochemical
Settings: for HDAC6 selectivity (fold): HDAC1 vs HDAC6; for IC50: same protocol as the HDAC1 enzyme activity test
Experimental: In order to examine the HDAC6 selectivity of the compounds of formula I of the present invention by HDAC1 and HDAC6 enzymatic activity inhibition assays, an experiment was performed using a conventional substance as a control.
HDAC enzyme activity was measured using a HDAC Fluorimetric Drug Discovery Kit (BML-AK511, 516, Enzo Life Science). For the HDAC1 enzyme activity test, human recombinant HDAC1 (BML-SE456) was used as an enzyme source, and Fluor de Lys®-“SIRT1 (BNL-KI177) was used as a substrate. A 5-fold dilution of the compound was seeded into a 96-well plate, and then 0.3 μg of the enzyme and 10 μM of the substrate were added to each well of the plate and allowed to react at 30° C. for 60 minutes. Then, Fluor de Lys®-Developer II (BML-KI176) was added thereto and allowed to react for 30 minutes, after which the fluorescence value (Ex 360, Em 460) was measured using a multi-plate reader (Flexstation 3, Molecular Device). The HDAC6 enzyme was tested using human recombinant HDAC6 (382180) (Calbiochem) according to the same protocol as the HDAC1 enzyme activity test method. Based on the resulting values, each IC50 value was calculated using GraphPad Prism4.0 program.

| SMILES | HDAC6 selectivity (fold) | IC50 [nM] |
| --- | --- | --- |
| O=S(=O)(c1cccnc1)N(Cc1ccc(-c2nnc(C(F)(F)F)o2)cc1)c1cccc(F)c1 [Compound 11155, N-(3-fluorophenyl)-N-(4-(5-(trifluoromethyl)-1,3,4-oxadiazol-2-yl)benzyl)pyridine-3-sulfonamide] | 1250 | 80 |
| O=S(=O)(c1cccnc1)N(Cc1ccc(-c2nnc(C(F)F)o2)cc1)c1cccc(F)c1 [Compound 11156, N-(4-(5-(difluoromethyl)-1,3,4-oxadiazol-2-yl)benzyl)-N-(3-fluorophenyl)pyridine-3-sulfonamide] | 3448 | 29 |
| CS(=O)(=O)N(Cc1ccc(-c2nnc(C(F)F)o2)cc1)c1ccccc1 [Compound 11168, N-(4-(5-(difluoromethyl)-1,3,4-oxadiazol-2-yl)benzyl)-N-phenylmethanesulfonamide] | 4348 | 23 |
| CS(=O)(=O)N(Cc1ccc(-c2nnc(C(F)F)o2)cn1)c1ccccc1 [Compound 11172, N-((5-(5-(difluoromethyl)-1,3,4-oxadiazol-2-yl)pyridin-2-yl)methyl)-N-phenylmethanesulfonamide] | 11111 | 9 |
| CS(=O)(=O)N(Cc1ccc(-c2nnc(C(F)F)o2)nc1)c1ccccc1 [Compound 11174, N-((6-(5-(difluoromethyl)-1,3,4-oxadiazol-2-yl)pyridin-3-yl)methyl)-N-phenylmethanesulfonamide] | 76 | 1310 |
| CS(=O)(=O)N(Cc1ccc(-c2nnc(C(F)(F)F)o2)c(F)c1)c1ccccc1 [Compound 11183, N-(3-fluoro-4-(5-(trifluoromethyl)-1,3,4-oxadiazol-2-yl)benzyl)-N-phenylmethanesulfonamide] | 426 | 235 |
| CS(=O)(=O)N(Cc1ccc(-c2nnc(C(F)F)o2)cc1)Cc1ccc(-c2nnc(C(F)F)o2)cc1 [Compound 11186, N,N-bis(4-(5-(difluoromethyl)-1,3,4-oxadiazol-2-yl)benzyl)methanesulfonamide] | 433 | 231 |
| CS(=O)(=O)N(Cc1ccc(-c2nnc(C(F)(F)F)o2)cc1F)c1cncnc1 [Compound 11194, N-(2-fluoro-4-(5-(trifluoromethyl)-1,3,4-oxadiazol-2-yl)benzyl)-N-(pyrimidin-5-yl)methanesulfonamide] | 1538 | 65 |
| CS(=O)(=O)N(Cc1ccc(-c2nnc(C(F)F)o2)cc1F)c1cncnc1 [Compound 11195, N-(4-(5-(difluoromethyl)-1,3,4-oxadiazol-2-yl)-2-fluorobenzyl)-N-(pyrimidin-5-yl)methanesulfonamide] | 1563 | 64 |
| CS(=O)(=O)N(Cc1ccc(-c2nnc(C(F)F)o2)cn1)c1cccc(F)c1 [Compound 11217, N-((5-(5-(difluoromethyl)-1,3,4-oxadiazol-2-yl)pyridin-2-yl)methyl)-N-(3-fluorophenyl)methanesulfonamide] | 7692 | 13 |
| CS(=O)(=O)N(Cc1ccc(-c2nnc(C(F)(F)F)o2)cc1F)c1ccccc1C(F)(F)F [Compound 11218, N-(2-fluoro-4-(5-(trifluoromethyl)-1,3,4-oxadiazol-2-yl)benzyl)-N-(2-(trifluoromethyl)phenyl)methanesulfonamide] | 429 | 233 |

Next, values leading:

| HDAC6 selectivity (fold) | IC50 [nM] | SMILES |
| --- | --- | --- |
| 7143 | 14 | CS(=O)(=O)N(Cc1ccc(-c2nnc(C(F)F)o2)cc1F)c1ccccc1 [Compound 11170, N-(4-(5-(difluoromethyl)-1,3,4-oxadiazol-2-yl)-2-fluorobenzyl)-N-phenylmethanesulfonamide] |
| 559 | 179 | CS(=O)(=O)N(Cc1ccc(-c2nnc(C(F)(F)F)o2)cc1F)c1cccc(C(F)(F)F)c1 [Compound 11175, N-(2-fluoro-4-(5-(trifluoromethyl)-1,3,4-oxadiazol-2-yl)benzyl)-N-(3-(trifluoromethyl)phenyl)methanesulfonamide] |
| 3571 | 28 | CS(=O)(=O)N(Cc1ccc(-c2nnc(C(F)F)o2)cc1F)c1cccc(C(F)(F)F)c1 [Compound 11176, N-(4-(5-(difluoromethyl)-1,3,4-oxadiazol-2-yl)-2-fluorobenzyl)-N-(3-(trifluoromethyl)phenyl)methanesulfonamide] |
| 5000 | 20 | Cc1cccc(N(Cc2ccc(-c3nnc(C(F)F)o3)cc2F)S(C)(=O)=O)c1 [Compound 11178, N-(4-(5-(difluoromethyl)-1,3,4-oxadiazol-2-yl)-2-fluorobenzyl)-N-(m-tolyl)methanesulfonamide] |
| 1613 | 62 | COc1cccc(N(Cc2ccc(-c3nnc(C(F)F)o3)cc2F)S(C)(=O)=O)c1 [Compound 11180, N-(4-(5-(difluoromethyl)-1,3,4-oxadiazol-2-yl)-2-fluorobenzyl)-N-(3-methoxyphenyl)methanesulfonamide] |
| 3030 | 33 | CS(=O)(=O)N(Cc1ccc(-c2nnc(C(F)(F)F)o2)cc1F)c1cccc(F)c1 [Compound 11181, N-(2-fluoro-4-(5-(trifluoromethyl)-1,3,4-oxadiazol-2-yl)benzyl)-N-(3-fluorophenyl)methanesulfonamide] |
| 5882 | 17 | CS(=O)(=O)N(Cc1ccc(-c2nnc(C(F)F)o2)cc1F)c1cccc(F)c1 [Compound 11182, N-(4-(5-(difluoromethyl)-1,3,4-oxadiazol-2-yl)-2-fluorobenzyl)-N-(3-fluorophenyl)methanesulfonamide] |
| 5000 | 20 | CS(=O)(=O)N(Cc1ccc(-c2nnc(C(F)F)o2)cc1F)c1cccc(Cl)c1 [Compound 11191, N-(3-chlorophenyl)-N-(4-(5-(difluoromethyl)-1,3,4-oxadiazol-2-yl)-2-fluorobenzyl)methanesulfonamide] |
| 3704 | 27 | COc1ccc(N(Cc2ccc(-c3nnc(C(F)F)o3)cc2F)S(C)(=O)=O)cc1 [Compound 11193, N-(4-(5-(difluoromethyl)-1,3,4-oxadiazol-2-yl)-2-fluorobenzyl)-N-(4-methoxyphenyl)methanesulfonamide] |
| 6667 | 15 | CS(=O)(=O)N(Cc1ccc(-c2nnc(C(F)F)o2)cc1F)c1cccc(Br)c1 [Compound 11197, N-(3-bromophenyl)-N-(4-(5-(difluoromethyl)-1,3,4-oxadiazol-2-yl)-2-fluorobenzyl)methanesulfonamide] |
| 1064 | 94 | CS(=O)(=O)N(Cc1ccc(-c2nnc(C(F)F)o2)cc1F)c1ccccc1C(F)(F)F [Compound 11219, N-(4-(5-(difluoromethyl)-1,3,4-oxadiazol-2-yl)-2-fluorobenzyl)-N-(2-(trifluoromethyl)phenyl)methanesulfonamide] |
| 990 | 101 | CS(=O)(=O)N(Cc1ccc(-c2nnc(C(F)F)o2)cc1F)c1ccc(C(F)(F)F)cc1 [Compound 11221, N-(4-(5-(difluoromethyl)-1,3,4-oxadiazol-2-yl)-2-fluorobenzyl)-N-(4-(trifluoromethyl)phenyl)methanesulfonamide] |
